Earlier results on one compound are cited in US12194143B2, “Mycophenolate oral suspension” (LIQMEDS WORLDWIDE LIMITED, priority 2018, dated 2025).

Where a name gives a salt, the structure may show the parent alone. Read-outs that look alike come from different tables or passages of the source.

Consider `C[C@@H](NCCCc1cccc(C(F)(F)F)c1)c1cccc2ccccc12` [Cinacalcet hydrochloride, N-[1-(R)-(−)-(1-naphthyl)ethyl]-3-[3-(trifluoromethyl)phenyl]-1-aminopropane], for which the solubility result is, setting by setting: (in 95% ethanol) “soluble”; (in methanol) “soluble”; (in water) “slightly soluble”.
